What was measured:
Type in all cases: functional, cell-based
CHO-AA8 = assay: Compound was evaluated for cytotoxicity against CHO AA8 cell lines for 4 hr at pH-7.4; details: Cricetulus griseus, CHO-AA8, 4 h
EMT6 = assay: Compound was evaluated for cytotoxicity against murine mammary carcinoma EMT6 cell lines for 4 hr at pH-7.4; details: Mus musculus, EMT6, 4 h
UV4 = assay: Compound was evaluated for cytotoxicity against CHO UV4 cell lines for 4 hr at pH-7.4; details: Cricetulus griseus, UV4, 4 h

Row | SMILES | IC50 (CHO-AA8) [µM] | IC50 (EMT6) [µM] | IC50 (UV4) [µM]
1 | CNc1ccc2c(c1)N(C(=O)c1cc3cc(OC)c(OC)c(OC)c3[nH]1)CC2CCl (configuration not stated) | 0.22 | 0.11 | 0.055
2 | CS(=O)(=O)N1CC(CCl)c2ccc(S)cc21 (configuration not stated) | > 200 | > 200 | 124
3 | CSc1ccc2c(c1)N(S(C)(=O)=O)CC2CCl (configuration not stated) | > 200 | > 200 | > 200
4 | CNc1ccc2c(c1)N(S(C)(=O)=O)CC2CCl (configuration not stated) | 50 | 13 | 4.1
5 | COc1cc2cc(C(=O)N3CC(CCl)c4ccc(N(C)C)cc43)[nH]c2c(OC)c1OC (configuration not stated) | 0.28 | 0.11 | 0.088
6 | COc1cc2cc(C(=O)N3CC(CCl)c4ccc(N)cc43)[nH]c2c(OC)c1OC (configuration not stated) | 0.32 | – | 0.059
7 | CS(=O)(=O)N1CC(CCl)c2ccc(O)cc21 (configuration not stated) | 20 | 7.7 | 1.9
8 | CS(=O)(=O)N1CC(CCl)c2ccc(SSc3ccc4c(c3)N(S(C)(=O)=O)CC4CCl)cc21 (configuration not stated) | > 50 | > 50 | > 50
9 | CN(C)c1ccc2c(c1)N(S(C)(=O)=O)CC2CCl (configuration not stated) | 72 | 20 | 15
10 | CS(=O)(=O)N1CC(CCl)c2ccc(N)cc21 (configuration not stated) | 158 | 33 | 13
11 | COc1cc2cc(C(=O)N3CC(CCl)c4ccc(O)cc43)[nH]c2c(OC)c1OC (configuration not stated) | 0.0065 | 0.0022 | 0.001

From ChEMBL document CHEMBL1150447, “Nitrogen and sulfur analogues of the secoCI alkylating agent: Synthesis and cytotoxicity” (Bioorg Med Chem Lett, 1996)
